Laboratory results published in patent US7037891B2, “Methods of modulating G-protein-coupled receptor kinase-associated signal transduction” (Children's Medical Center Corporation, priority 1997, dated 2006).

Tests used:
[1] = Type II diabetes in sand rats: blood-glucose after i.p. injection; type: in vivo, sand rats (psamomys obesus); conditions: diabetic sand-rats
Description: Sand-rats (psamomys) which are genetically prone to develop Type II diabetes were used in this study. The genetically selected sand-rats, 3 to 6 months old, were fed an energy-rich diet (Weizmann HE) for about 3 to 10 days until they became diabetic, as judged by their elevated blood-glucose level (see R. Kalman et al., “The Efficiency of Sand Rat Metabolism is Responsible for Development of Obesity and Diabetes”, J. of Basic & Clinical Physiology & Pharmacology (1993), vol. 4, no. 1–2, pp 57–68, the pertinent portions of which are incorporated herein by reference).
The diabetic sand-rats were injected i.p. once a week with a compound comprising GRK-derived peptide K024H107 (SEQ ID NO:10) at a dose of 10 mg/kg. The peptide was prepared by diluting a 10 mM solution of the peptide in 100% DMSO with phosphate buffered saline (PBS) containing 0.1% bovine serum albumin (BSA) to a concentration of 400 μM. […] of the 10 mM peptide in DMSO solution was mixed with 160 μl of 1.6M NH4HCO3 and heated for 40 minutes at 100° C. The resultant solution was then diluted to 400 μM in 2 M Hepes buffer (pH 7.0). This peptide stock solution was labeled “tbi”. The vehicle of the solution for injection included 8% DMSO, 0.67M ammonium bicarbonate, and 2M Hepes. Control animals received an i.p. injection of the vehicle only.

[2] = Reduction of weight and appetite of normal mice; type: in vivo; conditions: for change in body weight as compared to control / food consumption as compared to control: NDP-αMSH 0.9 μg/kg BW; for change in body weight as compared to control: KO24H107 21 mg/kg, or both (FIG. 7A); for food consumption as compared to control: KO24H107 21 mg/kg, or both (FIG. 7B)
Method: 18 Sabra male mice, 8 weeks old, were used and were divided into four groups as followed:
The animals were weighed before trial and periodically during the trial.
At the same time, food was weighted before it was introduced into cages and at the end of each tested period. From this point on, the follow-up included both weighing of the mice and of the food for the short period, every couple of hours, until night, and later on for the long period, each 24 hour cycle.
The results of FIG. 7A are shown as the percentage of change in body weight as compared to the initial weight for each mice, and then averaged for each group. The calculation of food consumption (FIG. 7B) was calculated in each group relative to the total weight of all animals (4 or 5 animals) and averaged separately for each group.
The above experiment was conducted again with another compound comprising a GRK-derived peptide KO24H112 (SEQ ID NO:5) 16 animals were used as follows: […]

C6 glioblastoma cells = assay: Intracellular cyclic AMP levels (EIA) after isoproterenol activation; type: cell-based
Description: It is well known that after activation of the various GPCRs there is an activation of the adenolate cyclase by G-proteins. This raises the cyclic-AMP levels in the cell, and these levels are then decreased due to the desensitization of the receptors by GRK. Thus it is expected that inhibition of GAST will eliminate this decrease in the cyclic AMP levels, and will cause a constitutive increase in cAMP levels.
C6 glioblastoma cells, which are known to express the β-adrenagic receptor (the substrate of GRK). have been used.
To the cells the following compounds were added:
The amount of the activity was measured by measuring the increase of intracellular cyclic AMP levels, which were measured using the commercially available kit of Biotrack Cellular Communication Assay cyclic-AMP enzyme—immunoassay (EIA) system.

| Substance | animals that became normoglycemic already after the first injection (responders) ([1]; i.p. 10 mg/kg once a week) [animals] | rest of the treated animals (nonresponders): normoglycemia ([1]; i.p. 10 mg/kg once a week) | blood-glucose ([1]; i.p. 10 mg/kg, after a single injection, vs vehicle controls (FIG. 3, 4)) | change in body weight as compared to control ([2]; normal Sabra male mice) | food consumption as compared to control ([2]; normal Sabra male mice) | weight and food consumption effect compared among the three treated groups ([2]; normal Sabra male mice, compound alone 21 mg/kg vs NDP-αMSH and combination (FIG. 7A, 7B)) | cyclic AMP levels (C6 glioblastoma cells; 10 μM compound added first, 1 μM isoproterenol an hour later (FIG. 6)) | cyclic AMP level (C6 glioblastoma cells; order reversed: 1 μM isoproterenol first, 10 μM compound one hour later (FIG. 6)) | weight change ([2]; normal mice, 23.2 mg/kg and 31.5 mg/kg, vs vehicle (FIG. 8A)) | change in food consumption ([2]; normal mice, 23.2 mg/kg and 31.5 mg/kg, vs vehicle (FIG. 8B)) |
| --- | --- | --- | --- | --- | --- | --- | --- | --- | --- | --- |
| K024H107: GRK-derived peptide, SEQ ID NO.: 10 (LLRRHS; bARK1) | 4 | became nornoglycemic after three additional weekly injections | dramatic decrease in blood-glucose to the normal level | weight decrease | decrease in food consumption | strongest effect | rose significantly | hardly changed |  |  |
| NDP-αMSH [reference compound] |  |  |  | weight decrease | decrease in food consumption |  |  |  |  |  |
| KO24H112: GRK-derived peptide; SEQ ID NO.: 15 in b61, printed SEQ ID NO:5 in b230 (LLRRHSI; bARK1) |  |  |  |  |  |  |  |  | effective in reducing both body weight and consumption | effective in reducing both body weight and consumption |
